Read-outs that look alike come from different tables or passages of the source.
Assays:
[1] = target: T1, p38α (Homo sapiens, UniProt Q16539); experiment: p38 MAP Kinase assay: inhibition of ATF2 phosphorylation, ELISA; assay type: biochemical; conditions: for IC50: ATF2 phosphorylation, read-out: [ENZ] P38 ALPHA, IC50, ELISA; for inhibition at 10 µM: substrate ATF2, read-out: [ENZ] P38 ALPHA, PCT INH, ELISA (10 uM;ATF2) (Percent)
T1 construct: p38 MAP Kinases are recombinant human full-length proteins with an amino-terminal GST fusion; GST (N); purchased Upstate Biotechnology Inc; host or cells: E. coli
Text: Compounds of the invention are screened for the ability to inhibit ATF2 phosphorylation by p38 MAP Kinase in vitro. The ability of compounds to inhibit ATF2 phosphorylation in this in vitro assay is correlated with the inhibition of p38 MAP Kinase and TNFα expression in vivo, and is therefore an indicator of potential in vivo therapeutic activity (Raingeaud, J., et al, J. Biol. Chem., 270: 7420-7426, 1995, Brinkman, M. N., et al, J. Biol. Chem. 274: 30882-30886, 1999 and Fuchs, S. Y. et al, J. Biol. Chem. 275: 12560-12564, 2000).
Materials: All kinases and the substrate ATF2 are acquired from Upstate Biotechnology Inc. p38 MAP Kinases are recombinant human full-length proteins with an amino-terminal GST fusion, expressed in and purified from E. coli. ATF2 is a GST fusion protein containing amino acids 19-96 of human ATF2 expressed in E. coli. All proteins are aliquoted and stored at −80° C.
Methods: p38 MAP Kinase assays are performed using an assay buffer containing 25 mM HEPES, pH 7.5, 10 mM MgCl2, 2 mM DTT, 20 mM β-glycerophosphate, 0.1 mM Na3VO4, 40 μM ATP and 1.25 μM of ATF2 and in the absence or presence of 1% human serum albumin, Method I and II, respectively, with 0.4-6 ng of protein depending on the kinase used. Compounds are serially diluted in DMSO and 2 μL of test compound at 25× final concentration is used. The vehicle control receives DMSO only. Test compounds are pre-incubated with 20 μl of enzyme in kinase buffer (25 mM HEPES, pH 7.5, 10 mM MgCl2, 2 mM DTT, 20 mM β-glycerophosphate, 0.1 mM Na3VO4 in the absence or presence of 1% human serum albumin, Method I and II, respectively) at room temperature for 15 minutes. […] The reactions are incubated for 30 minutes at 37° C. and terminated by the addition of 18 μl of 200 mM EDTA. An ELISA method (I or II) is used to measure the phosphorylation of ATF2 at Thr 69. Method I: 96-well high binding plates (Corning 3369) are coated with 50 μl of kinase reaction for 1 hour at 37° C. The coated plates are washed with 200 μl washing buffer (25 mM Tris HCl, pH 8.3, 192 mM glycine, 0.1% SDS and 0.05% Tween-20) three times. The plates are then washed three times with SuperBlock in TBS (Pierce, 37535). After blocking, plates are incubated with 50 μl of rabbit anti-phospho-ATF2 antibody (Cell Signaling, 9221L, 1:500) for 30 minutes at 37° C. Plates are washed three times with washing buffer prior to incubation with 50 μl HRP-conjugated goat anti-rabbit antibody (Cell Signaling, 7074, 1:500) for 30 minutes at 37° C. Plates are then washed three times with washing buffer before incubation with 50 μl of Ultra TMB-ELISA (Pierce, 34028) for 8 minutes at room temperature. Finally, 50 ul of phosphoric acid (1 M) is added to stop reactions and plate absorbance is read at 450 nm on a SpectraMax 250 plate reader. Method II: 96-well high binding plates (Corning 3369) are coated with 400 ng of monoclonal antibody against GST-tag (Cell signaling) in 100 μl containing sodium borate (pH 8.3) for 90 minutes at 37° C. The plates are washed with 200 μl washing buffer (25 mM Tris HCl, pH 7.2, 150 mM NaCl and Tween-20) three times and blocked with 200 μl of 5% nonfat milk for 30 minutes at room temperature. The plates are washed three times with washing buffer, 50 μl of stopped kinase reaction are added to each well and incubated for 80 minutes at 37° C. The plates are washed three times with 200 μl washing buffer, and the plates are incubated with 50 μl of rabbit anti-phospho-ATF2 antibody (Cell Signaling, 9221L, 1:500) for 30 minutes at 37° C. Plates are washed three times with washing buffer prior to incubation with 50 μl HRP-conjugated goat anti-rabbit antibody (Cell Signaling, 7074, 1:500) for 30 minutes at 37° C. Plates are washed three times with washing buffer before incubation with 50 μl of Ultra TMB-ELISA (Pierce, 34028) for 25 minutes at room temperature. Finally, 50 μl of phosphoric acid (1 M) is added to stop reactions and plate absorbance is read at 450 nm on a SpectraMax 250 plate reader. […]

[2] = system: TNFα release from THP-1 cells; experiment: Inhibition of TNFα release from LPS-stimulated THP-1 cells, ELISA; assay type: cell-based; conditions: Homo sapiens, read-out: [CELL] THP-1, IC50, TNF ALPHA, ELISA
Text: Compounds of the invention are screened for the ability to inhibit TNFα and IL-1β release from THP-1 cells stimulated with lipopolysaccharide (LPS) in vitro. The ability of compounds to inhibit TNFα and IL-1β release in this in vitro assay is correlated with the inhibition of p38 activity and TNFα and IL-1β expression in vivo, and is therefore an indicator of potential in vivo therapeutic activity (Lee J. C. et al, Ann. N.Y. Acad. Sci. 696: 149-170, 1993 and Nature, 372: 739-746, 1994).
Materials: THP-1 cells from ATCC (TIB202) are maintained at 37° C., 5% CO2 in RPMI 1640 media (available from MediaTech, Herndon, Va.) containing 4.5 g/L glucose, supplemented with 10% fetal bovine serum, 1% penicillin/streptomycin and 50 μM β-mercaptoethanol.
Methods: Test compounds are initially dissolved in RPMI media with 1% DMSO (v/v). Compounds are then serially diluted in RPMI media for all subsequent dilutions. The assay is performed under sterile conditions. THP-1 cells at a culture density of 6-8×10^5 cells/ml are collected and resuspended in the RPMI media at 10^6 cells/ml containing 10% fetal bovine serum, no serum or 1% human serum albumin (HSA). 100 μl of resuspended cells are added to each well, which contain 100 μl of a test compound. Test compounds are prepared at twice the final concentration. Final DMSO concentration is no more than 0.5% (v/v). Cells are preincubated with compound for 30 minutes at 37° C., 5% CO2 prior to stimulation with lipopolysaccharide (LPS) (Sigma L-2880, 4 mg/ml stock in PBS). The final LPS concentration in each well is 10 or 30 μg/ml for TNFα and IL-1β release, respectively. Unstimulated control cell suspensions receive PBS vehicle only. Cell mixtures are incubated for 18 or 48 hours for TNFα and IL-1β prelease, respectively. 150 μl of supernatants are taken and transferred to a fresh plate and stored at −20° C. until further analysis. TNFα and IL-1β levels are measured using ELISA kits from Biosource (Catalog no. KHC3012 for TNFα; KAC1192 for IL-1β). A SpectraMAX 250 is used as the plate reader. Analysis is performed by non-linear regression to generate a dose response curve. The calculated IC50 value is the concentration of the test compound that causes a 50% decrease in TNFα or IL-1β levels.

T1 sequence (Q16539 whole entry, the tested form may be a part): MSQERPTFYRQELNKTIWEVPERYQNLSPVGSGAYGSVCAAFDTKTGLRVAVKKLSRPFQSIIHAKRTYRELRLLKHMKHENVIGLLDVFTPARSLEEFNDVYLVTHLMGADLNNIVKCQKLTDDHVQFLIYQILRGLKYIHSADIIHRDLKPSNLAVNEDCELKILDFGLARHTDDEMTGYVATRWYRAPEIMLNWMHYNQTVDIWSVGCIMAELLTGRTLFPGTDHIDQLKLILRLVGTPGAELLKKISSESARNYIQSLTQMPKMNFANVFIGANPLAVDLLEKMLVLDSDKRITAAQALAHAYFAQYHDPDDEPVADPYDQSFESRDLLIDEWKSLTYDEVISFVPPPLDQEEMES

For O=C(Nc1ccc(OCCN2CCOCC2)c2ncccc12)c1cc(F)cc(N2CCOCC2)c1 [Compound B244], the IC50 [1] was greater than 10000 nM and the IC50 ([2]; THP-1, THP-1 cells) was greater than 10000 nM.
COc1cccc(OC)c1-c1cccc(C(=O)Nc2ccc(OCCN3CCOCC3)c3ccccc23)c1 [Compound B108] was tested, and the inhibition at 10 µM [1] was 42%, the IC50 [1] was greater than 10000 nM and the IC50 ([2]; THP-1, THP-1 cells) was 2260 nM.
In the case of Cc1cc(C(=O)Nc2ccc(OCCN3CCOCC3)c3ccccc23)cc(N2CCC(C)CC2)n1 [Compound B154, 4,6′-Dimethyl-3,4,5,6-tetrahydro-2H-[1,2′]bipyridinyl-4′-carboxylic acid [4-(2-morpholin-4-yl-ethoxy)-naphthalen-1-yl]-amide], the inhibition at 10 µM [1] is reported as 71%, the IC50 [1] is reported as 2720 nM and the IC50 ([2]; THP-1, THP-1 cells) is reported as 2530 nM.
Compound CN(C)C(=O)[C@@H]1CCCN1c1nccc(Oc2ccc(NC(=O)c3cc(F)cc(N4CCOCC4)c3)c3ccccc23)n1 [Compound B356] has an IC50 [1] of 264 nM and an IC50 ([2]; THP-1, THP-1 cells) greater than 1000 nM.
For O=C(Nc1ccc(OCCN2CCOCC2)c2ccccc12)c1cccc(-c2ccccc2F)c1 [Compound B278, 2′-Fluoro-biphenyl-3-carboxylic acid [4-(2-morpholin-4-yl-ethoxy)-naphthalen-1-yl]-amide], the IC50 [1] was 935 nM and the IC50 ([2]; THP-1, THP-1 cells) was 3690 nM.
O=C(Nc1ccc(Oc2ccnc(NC3(CO)CCCC3)n2)c2ccccc12)c1cc(F)cc(N2CCCCC2)c1 [Compound B399, 3-Fluoro-N-{4-[(2-{[1-(hydroxymethyl)cyclopentyl]amino}pyrimidin-4-yl)oxy]-1-naphthyl}-5-piperidin-1-ylbenzamide] was tested, and the IC50 [1] was 12.7 nM and the IC50 ([2]; THP-1, THP-1 cells) was 136 nM.
Cc1cc(-c2cccc(C(=O)Nc3ccc(OCCN4CCOCC4)c4ccccc34)c2)ccc1Cl [Compound B300] showed an IC50 [1] of 9080 nM and an IC50 ([2]; THP-1, THP-1 cells) of 9060 nM.
For O=C(Nc1ccc(OCCN2CCOCC2)c2ccccc12)c1cn(Cc2ccccc2)c2ccccc12 [Compound B49], the IC50 [1] was greater than 10000 nM and the IC50 ([2]; THP-1 cells) was greater than 10000 nM.
O=C(Nc1ccc(OCCN2CCOCC2)c2ccccc12)c1ccnc(N2CCC3(CC2)OCCO3)c1 [Compound B44, 2-(1,4-Dioxa-8-aza-spiro[4.5]dec-8-yl)-N-[4-(2-morpholin-4-yl-ethoxy)-naphthalen-1-yl]-isonicotinamide] gave an IC50 [1] greater than 10000 nM and an IC50 ([2]; THP-1, THP-1 cells) of 1010 nM.
CC1CCCN(c2cc(C(=O)Nc3ccc(OCCN4CCOCC4)c4ccccc34)ccn2)C1 (stereo not drawn) [Compound B126, 3-Methyl-3,4,5,6-tetrahydro-2 H-[1,2′]bipyridinyl-4′-carboxylic acid [4-(2-morpholin-4-yl-ethoxy)-naphthalen-1-yl]-amide] was tested, and the inhibition at 10 µM [1] was 85%, the IC50 [1] was 451 nM and the IC50 ([2]; THP-1, THP-1 cells) was 934 nM.
Work on O=C(Nc1ccc(OCCN2CCOCC2)c2ccccc12)c1ccc(N2CCOCC2)nc1 [Compound B30] yielded an IC50 [1] greater than 10000 nM and an IC50 ([2]; THP-1, THP-1 cells) greater than 10000 nM.
Compound O=C(Nc1ccc(Oc2ccnc(N3CCC(CO)CC3)n2)c2ccccc12)c1cc(F)cc(N2CCOCC2)c1 [Compound B359] has an IC50 [1] of 4.2 nM and an IC50 ([2]; THP-1, THP-1 cells) of 104 nM.
In the case of O=C(Nc1ccc(OCCN2CCOCC2)c2ccccc12)c1cccc(CN2CCCCC2)c1 [Compound B55], the IC50 [1] is reported as greater than 10000 nM and the IC50 ([2]; THP-1, THP-1 cells) is reported as greater than 10000 nM.
CN(C)c1ccc(C(=O)Nc2ccc(OCCN3CCOCC3)c3ccccc23)cc1 [Compound B34] was tested, and the IC50 [1] was 10700 nM and the IC50 ([2]; THP-1, THP-1 cells) was greater than 10000 nM.
With C[C@@H]1CN(c2cccc(C(=O)Nc3ccc(OCCN4CCOCC4)c4ccccc34)c2)C[C@H](C)O1 [Compound B31] the IC50 [1] was 10000 nM and the IC50 ([2]; THP-1, THP-1 cells) was greater than 10000 nM.
O=C(Nc1ccc(OCCN2CCOCC2)c2ccccc12)c1cccc(-c2ccc(C(F)(F)F)cc2)c1 [Compound B271] gave an IC50 [1] greater than 10000 nM and an IC50 ([2]; THP-1, THP-1 cells) of 4030 nM.
For CN(C(=N)N)c1nccc(Oc2ccc(NC(=O)c3cc(F)cc(N4CCCCC4)c3)c3ccccc23)n1 [Compound B413], the IC50 [1] was 36.3 nM and the IC50 ([2]; THP-1, THP-1 cells) was greater than 1000 nM.
COC(CNc1nccc(Oc2ccc(NC(=O)c3cc(F)cc(N4CCOCC4)c3)c3ccccc23)n1)OC [Compound B357] showed an IC50 [1] of 3 nM and an IC50 ([2]; THP-1, THP-1 cells) of 30.1 nM.
Compound O=C(Nc1ccc(OCCN2CCOCC2)c2ccccc12)c1cccc(-c2ccc(F)cc2)c1 [Compound B277] has an IC50 [1] of 777 nM and an IC50 ([2]; THP-1, THP-1 cells) of 1840 nM.
CC(=O)N1CCN(CCOc2ccc(NC(=O)c3cc(F)cc(N4CCCCC4)c3)c3ccccc23)CC1 [Compound B167, N-{4-[2-(4-Acetyl-piperazin-1-yl)-ethoxy]-naphthalen-1-yl}-3-fluoro-5-piperidin-1-yl-benzamide] was tested, and the IC50 [1] was 851 nM and the IC50 ([2]; THP-1, THP-1 cells) was greater than 10000 nM.
With O=C(Nc1ccc(OCCN2CCSCC2)c2ccccc12)c1ccc(CN2CCOCC2)cc1 [Compound B4] the IC50 [1] was greater than 100000 nM and the IC50 ([2]; THP-1, THP-1 cells) was greater than 10000 nM.
COc1cccc(-c2cccc(C(=O)Nc3ccc(OCCN4CCOCC4)c4ccccc34)c2)c1OC [Compound B292] gave an IC50 [1] greater than 10000 nM and an IC50 ([2]; THP-1, THP-1 cells) greater than 10000 nM.
CCOC(=O)N1CCN(CCOc2ccc(NC(=O)c3ccc(CN4CCOCC4)cc3)c3ccccc23)CC1 [Compound B3] showed an IC50 [1] greater than 10000 nM and an IC50 ([2]; THP-1, THP-1 cells) greater than 10000 nM.
For O=C(Nc1ccc(OCCN2CCOCC2)c2ccccc12)c1cccc(-c2cccc(F)c2)c1 [Compound B272], the IC50 ([2]; THP-1, THP-1 cells) was 3400 nM.
For CN(C)C(=O)[C@@H]1CCCN1c1nccc(Oc2ccc(NC(=O)c3cc(F)cc(N4CCCCC4)c3)c3ccccc23)n1 [Compound B408], the IC50 ([2]; THP-1, THP-1 cells) was greater than 1000 nM.
